Test results from patent US20170153225A1, “A METHOD OF SCREENING FOR A COMPOUND CAPABLE OF STIMULATING GLUCOSE TRANSPORT INTO BROWN AND/OR BRITE ADIPOCYTES OF A MAMMAL, A KIT FOR USE IN SUCH A METHOD” (ATROGI AB, priority 2014, published 2017).

Columns and labels:
mouse rictor = test: Rictor knock down with siRNA, then glucose uptake or western blotting; type: cell-based; settings: 2.5 μg/ml siRNA
Experimental: Primary brown adipocytes were used on day 3 and transfected with K2 Transfection System (Biontex laboratories) according to manufacturer's protocol using 2.5 μg/ml of siRNA (sequence: […]) directed against mouse rictor (from Sigma). 24 h after transfection, glucose uptake or western blotting was performed as described above.

BAT = test: Glucose uptake in brown fat (BAT) in vivo, [3H]-2DG; set-up: species or system FVB mice; settings: n=5
Experimental: Groups of FVB mice were fasted for 5 hours prior to study and anesthetized with pentobarbital (60 mg per kg of body weight, i.p.). Mice were then injected with a specific mTOR inhibitor KU 0063794 (10 mg/kg i.p.) or DMSO as control. Isoproterenol (1 mg/kg ip) or saline were injected after 10 min and [^3H]-2DG (130 μCi/kg body weight ip) 20 min prior to end time. BAT was dissected […], and tissues digested with 0.5M NaOH overnight. Glucose uptake was measured by liquid scintillation counting. All experiments were conducted with ethical permission (N388/12) from the North Stockholm Animal Ethics Committee.

GLUT1 [1] = test: Western blot of total GLUT1 protein content; type: cell-based, NMRI mice; settings: isoproterenol 1 μM, 0-2 h; for total GLUT1 protein content (Western blot): in presence or absence of 1 μM KU 0063794, p=0.0067 and p=0.0017, n=3
Experimental: Brown adipocytes were grown as described in Example 1 and differentiated in 12 well plates and serum starved the night prior to experiment. On day 7 the cells were challenged with inhibitors for 30 min before being stimulated with drugs as indicated. Lysates were prepared in prewarmed (65° C.) sample buffer (62.5 mM Tris pH 6.8, 2% SDS, 10% glycerol, 50 mM dithiothreitol, 0.1% bromophenol blue) and boiled for 5 min. Samples were loaded on a 8 or 12% acrylamide gel and separated for 2 hours at 100 V. Proteins were transferred to Hybond-P polyvinylidene difluoride membranes (pore size […]; Amersham Biosciences, Arlington Heights, Ill.). The primary GLUT1 antibody (diluted 1:1000) was from AbCam (Cambridge, UK). The primary antibody was detected using a secondary antibody (horseradish peroxidase-linked anti-rabbit IgG, Cell Signaling) diluted 1:2000 and enhanced chemiluminescence (ECL, Amersham Biosciences). Images were quantified using Image J 1.46r. […] Western blot of GLUT1 protein content in mature brown adipocytes was quantified after isoproterenol stimulation (1 μM, 0-2 h) in presence or absence of 1 μM KU 0063794.

GLUT1 [2] = test: Immunocytochemistry of total cellular GLUT1 in permeabilized cells; type: cell-based, NMRI mice; settings: isoproterenol 1 μM, 2 h
Experimental: (§1) Brown adipocytes were isolated as described in Example 1 and seeded onto BD Falcon culture chamber slides (BD Biosciences, Franklin Lakes, N.J.). Cells were serum starved the night prior to experiment. On day 7 the cells were challenged with inhibitors for 30 min before being stimulated for 1-2 hours with drugs as indicated. Cells were washed with warm PBS and fixed for 15 min (4% formaldehyde in PBS). Cells were washed with PBS and formaldehyde quenched with 50 mM glycine in PBS, and washed three times for 5 min each with PBS. Cells were blocked for 1 h at room temperature with 8% BSA in PBS, and washed three times for 5 min each with PBS. For permeabilizing the cells, the cells were treated with 10% triton x in PBS (dilution 1:40) before blocking. Primary antibody (2 μg/ml GLUT1 antibody (AbCam, Cambridge, UK), 1.5% BSA in PBS) was added and slides incubated over night at 4° C. The next day the cells were washed three times for 5 min each with PBS. Slides were then incubated with secondary antibody (3 μg/ml alexa488 conjugated goat antirabbit IgG (Invitrogen, Paisley, UK), 3% BSA in PBS) and washed three times for 5 min each with PBS. Slides were mounted with mounting media (8% 1,4-diazabicyclooctane, 75% glycerol in PBS) and sealed.

GLUT1 [3] = test: Immunocytochemistry of plasma membrane GLUT1 (translocation) in non-permeabilized cells; type: cell-based, NMRI mice; settings: KU 0063794 1 μM, isoproterenol 1 μM, 2 h, p=0.0153, n=3
Experimental: as §1

[4] = system: mature brown adipocytes primary cultures; test: 2-deoxy-D-[1-3H]-glucose uptake in vitro in mature primary brown adipocytes; type: cell-based, NMRI mice; settings: for glucose uptake: isoproterenol 1 μM, 2 hours, p=0.0042, n=4-6
Experimental: Brown fat primary cells were isolated from NMRI mice (3-4 week-old) purchased from Nova-SCB AB, Sweden. All experiments were conducted with ethical permission (N388/12) from the North Stockholm Animal Ethics Committee. Animals were euthanized by CO2, and brown fat precursor cells were isolated from the intrascapular, axillary and cervical brown adipocyte depots as previously described (Hutchinson, Bengtsson 2006, Hutchinson, Chernogubova et al. 2006). The tissue was minced and transferred to a HEPES-buffered solution (pH 7.4) containing 0.2% (wt/vol) crude collagenase type II. Routinely, tissue from 6 mice was digested in 10 ml of the HEPES-buffered solution. The tissue was digested for 30 minutes at 37° C., with constant vortexing. The digest was filtered through a 250 μm filter and the solution incubated on ice for 15 min to allow the mature adipocytes and fat droplets to float. The infranatant was filtered through a 25 μm filter, centrifuged (10 min, 700×g), the pellet resuspended in DMEM (4.5 g D-glucose/l) and recentrifuged. The pellet was finally resuspended in 0.5 ml cell culture medium per mouse dissected. The cell culture medium consisted of DMEM (4.5 g D-glucose/l) supplemented with 10% newborn calf serum, 2.4 nM insulin, […], 50 IU/ml penicillin, 50 μg/ml streptomycin and 25 μg/ml sodium ascorbate. Aliquots of 0.1 ml cell suspension were cultured in 12-well culture dishes with 0.9 ml of cell culture medium. Cultures were incubated in a 37° C. humidified atmosphere of 8% CO2 in air. On days 1, 3 and 5, the cell culture medium was renewed. Cells were used on day 7.
Glucose uptake in vitro was performed as previously described (Yamamoto, Hutchinson et al. 2007). On day 7 the cells were treated with inhibitors for 30 min before addition of isoproterenol for 2 hours, unless otherwise indicated. […] Reactions were terminated by washing in ice-cold PBS, cells lysed (400 μl of 0.2 M NaOH, 1 h at 60° C.) and the incorporated radioactivity determined by liquid scintillation counting.

mTOR = mTOR phosphorylation at Ser2481 and Ser2448 by western blot; type: cell-based; settings: 1 μM isoprenaline, 2 hours
Source text: The immunoblot is representative of three experiments performed.

siRNA directed against mouse rictor: siRNA (sequence: CAGAAAGCAATCGCAACTCACCACA) directed against mouse rictor (from Sigma) (chemistry not given here)
inhibition of isoproterenol (GPCR) stimulated glucose uptake by rictor knock down (mouse rictor; 24 h after transfection, p=0.0105, n=3): fully inhibited | rictor protein after knock down (mouse rictor; K2 transfection system): reduction of rictor protein

COc1ccc(-c2ccc3c(N4CCOCC4)nc(N4C[C@@H](C)O[C@@H](C)C4)nc3n2)cc1CO [KU 0063794]
reduction of isoproterenol stimulated glucose uptake in vivo (BAT; KU 0063794 before isoproterenol 1 mg/kg ip, p=0.0175): significantly reduced | effect of mTOR inhibitor on isoproterenol-increased GLUT1 content (Western blot) (GLUT1 [1]; KU 0063794 1 μM): mTOR independent manner | effect of mTOR inhibitor on stimulated de novo synthesis of GLUT1, permeabilized cells (GLUT1 [2]; KU 0063794 1 μM): not inhibited by inhibition of mTOR | inhibition of isoproterenol-stimulated translocation of GLUT1 to the plasma membrane (GLUT1 [3]): prevents the translocation of GLUT1 to the plasma membrane

CCC(=O)N1CCN(c2ccc(-n3c(=O)ccc4cnc5ccc(-c6cnc7ccccc7c6)cc5c43)cc2C(F)(F)F)CC1 [Torin-1]
inhibition of isoproterenol stimulated glucose uptake ([4]; Torin-1 1 μM, 30 min before isoproterenol 1 μM): full inhibition of glucose uptake

CC(C)NCC(O)c1ccc(O)c(O)c1 (centres unmarked) [Isoproterenol]
glucose uptake [4]: increase glucose uptake | glucose uptake ([4]; listed as isoproterenol): increases glucose uptake | glucose uptake in brown fat in vivo (BAT; isoproterenol 1 mg/kg ip): stimulated glucose uptake in vivo | total GLUT1 protein content (Western blot) (GLUT1 [1]): significantly increase the amount of GLUT1 | total GLUT1 protein content (Western blot) (GLUT1 [1]; listed as isoproterenol): increased total GLUT1 content | total cellular GLUT1 (de novo synthesis), permeabilized cells (GLUT1 [2]; p=0.0334, n=3): de novo synthesis can be stimulated | mTOR phosphorylation at Ser2448 (mTOR): not at Ser2448
